Reference: patent publication US8735398B2 (Bristol-Myers Squibb Company, priority 2009, dated 2014)
pEC50: −log10 of the molar value. Like-named read-outs stand apart in the source and are kept apart here.

System: HCV 1b genotype
Experiment: HCV replicon assay (HCV-neo replicon cells, wild-type)
Format: cell-based, Hepatitis C virus
Details: HCV 1b genotype replicon
Method in brief: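 HCV-neo replicon cells (wild-type) and replicon cells carrying NS5A resistance substitutions were treated with compounds; assay per O'Boyle et al. 2005, with luciferase-reporter read-out variants also used.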

[1] = Hepatitis C virus, class symbols, read-out: EC50 Range against HCV 1b
[2] = Hepatitis C virus, read-out: EC50 1b
[3] = class symbols, read-out: EC50 Range against HCV 1b
[4] = Hepatitis C virus, class symbol, read-out: EC50 Range against HCV 1b

## O=C(Nc1ccc(-c2cnc(-c3ccc(NC(=O)[C@@H]4CCCN4C(=O)C(O)c4cccs4)cc3)o2)cc1)[C@@H]1CCCN1C(=O)C(O)c1cccs1 (stereo partly drawn) [JR-6, (2S,2′S)-N,N′-(2,5-oxazolediyldi-4,1-phenylene)bis[1-(hydroxy-2-thienylacetyl)-2-pyrrolidinecarboxamide]]
[1]
  pEC50: > 8.34
[2]
  pEC50: > 8.30

## O=C(Nc1ccc(-c2cnc(-c3ccc(NC(=O)[C@@H]4CCCN4C(=O)C(O)c4cccnc4)cc3)o2)cc1)[C@@H]1CCCN1C(=O)C(O)c1cccnc1 (stereo partly drawn) [JR-7, (2S,2′S)-N,N′-(2,5-oxazolediyldi-4,1-phenylene)bis[1-(hydroxy-3-pyridinylacetyl)-2-pyrrolidinecarboxamide]]
[1]
  pEC50: 7.00 to 8.34

## CN(C)C(Cc1ccc(Br)cc1)C(=O)N1CCC[C@H]1C(=O)Nc1ccc(-c2cnc(-c3ccc(NC(=O)[C@@H]4CCCN4C(=O)C(Cc4ccc(Br)cc4)N(C)C)cc3)o2)cc1 (stereo partly drawn) [JR-8, (2S)-N,N′-(4,4′-(oxazole-2,5-diyl)bis(4,1-phenylene))bis(1-(3-(4-bromophenyl)-2-(dimethylamino)propanoyl)pyrrolidine-2-carboxamide)]
[3]
  pEC50: 7.00 to 8.34

## O=C(Nc1ccc(-c2cnc(-c3ccc(NC(=O)[C@@H]4CCCN4C(=O)Cn4c(=O)[nH]c5ccccc54)cc3)o2)cc1)[C@@H]1CCCN1C(=O)Cn1c(=O)[nH]c2ccccc21 [JR-9, (2S,2′S)-N,N′-(2,5-oxazolediyldi-4,1-phenylene)bis[1-[(2,3-dihydro-2-oxo-1H-benzimidazol-1-yl)acetyl]-2-pyrrolidinecarboxamide]]
[1]
  pEC50: 6.00 to 7.00

## CCn1c(=O)n(C(C)C(=O)N2CCC[C@H]2C(=O)Nc2ccc(-c3cnc(-c4ccc(NC(=O)[C@@H]5CCCN5C(=O)C(C)n5c(=O)n(CC)c6ccccc65)cc4)o3)cc2)c2ccccc21 (stereo partly drawn) [JR-10, (2S,2′S)-N,N′-(2,5-oxazolediyldi-4,1-phenylene)bis[1-[2-(3-ethyl-2,3-dihydro-2-oxo-1H-benzimidazol-1-yl)-1-oxopropyl]-2-pyrrolidinecarboxamide]]
[1]
  pEC50: 5.00 to 6.00

## O=C(Nc1ccc(-c2cnc(-c3ccc(NC(=O)[C@@H]4CCCN4C(=O)C(c4ccccc4)n4c(=O)[nH]c5ccccc54)cc3)o2)cc1)[C@@H]1CCCN1C(=O)C(c1ccccc1)n1c(=O)[nH]c2ccccc21 (stereo partly drawn) [JR-11, (2S,2′S)-N,N′-(2,5-oxazolediyldi-4,1-phenylene)bis[1-[(2,3-dihydro-2-oxo-1H-benzimidazol-1-yl)phenylacetyl]-2-pyrrolidinecarboxamide]]
[1]
  pEC50: 6.00 to 7.00

## CN(C)C(Cn1cncn1)C(=O)N1CCC[C@H]1C(=O)Nc1ccc(-c2cnc(-c3ccc(NC(=O)[C@@H]4CCCN4C(=O)C(Cn4cncn4)N(C)C)cc3)o2)cc1 (stereo partly drawn) [JR-12, (2S)-N,N′-(4,4′-(oxazole-2,5-diyl)bis(4,1-phenylene))bis(1-(2-(dimethylamino)-3-(1H-1,2,4-triazol-1-yl)propanoyl)pyrrolidine-2-carboxamide)]
[3]
  pEC50: 6.00 to 7.00

## CN(C)[C@H](C(=O)N1CCC[C@H]1C(=O)Nc1ccc(-c2cnc(-c3ccc(NC(=O)[C@@H]4CCCN4C(=O)[C@H]([C@@H](O)c4ccccc4)N(C)C)cc3)o2)cc1)[C@@H](O)c1ccccc1 [JR-13, (S,S,2S)-N,N′-(4,4′-(oxazole-2,5-diyl)bis(4,1-phenylene))bis(1-((2S,3S)-2-(dimethylamino)-3-hydroxy-3-phenylpropanoyl)pyrrolidine-2-carboxamide)]
[3]
  pEC50: 6.00 to 7.00
read-out: EC50 1b
  pEC50: 6.95

## CN(C)[C@H](C(=O)N1CCC[C@H]1C(=O)Nc1ccc(-c2cnc(-c3ccc(NC(=O)[C@@H]4CCCN4C(=O)[C@H]([C@H](O)c4ccccc4)N(C)C)cc3)o2)cc1)[C@H](O)c1ccccc1 [JR-14, (S,R,2S)-N,N′-(4,4′-(oxazole-2,5-diyl)bis(4,1-phenylene))bis(1-((2S,3R)-2-(dimethylamino)-3-hydroxy-3-phenylpropanoyl)pyrrolidine-2-carboxamide)]
[3]
  pEC50: 5.00 to 6.00

## CN(C)[C@H](C(=O)N1CCC[C@H]1C(=O)Nc1ccc(-c2cnc(-c3ccc(NC(=O)[C@@H]4CCCN4C(=O)[C@H]([C@@H](O)c4ccsc4)N(C)C)cc3)o2)cc1)[C@@H](O)c1ccsc1 [JR-15, (S,S,2S)-N,N′-(4,4′-(oxazole-2,5-diyl)bis(4,1-phenylene))bis(1-((2S,3S)-2-(dimethylamino)-3-hydroxy-3-(thiophen-3-yl)propanoyl)pyrrolidine-2-carboxamide)]
[3]
  pEC50: 7.00 to 8.34

## CN(C)[C@H](C(=O)N1CCC[C@H]1C(=O)Nc1ccc(-c2cnc(-c3ccc(NC(=O)[C@@H]4CCCN4C(=O)[C@H]([C@H](O)c4ccsc4)N(C)C)cc3)o2)cc1)[C@H](O)c1ccsc1 [JR-16, (S,R,2S)-N,N′-(4,4′-(oxazole-2,5-diyl)bis(4,1-phenylene))bis(1-((2S,3R)-2-(dimethylamino)-3-hydroxy-3-(thiophen-3-yl)propanoyl)pyrrolidine-2-carboxamide)]
[3]
  pEC50: 5.00 to 6.00

## O=C(Nc1ccc(-c2cnc(-c3ccc(NC(=O)[C@@H]4CCCN4C(=O)C4CSC5CCC(=O)N54)cc3)o2)cc1)[C@@H]1CCCN1C(=O)C1CSC2CCC(=O)N21 (stereo partly drawn) [JR-17, (2S,2′S)-N,N′-(2,5-oxazolediyldi-4,1-phenylene)bis[1-[(hexahydro-5-oxopyrrolo[2,1-b]thiazol-3-yl)carbonyl]-2-pyrrolidinecarboxamide]]
[1]
  pEC50: 5.00 to 6.00

## CC(C(=O)N1CCC[C@H]1C(=O)Nc1ccc(-c2cnc(-c3ccc(NC(=O)[C@@H]4CCCN4C(=O)C(C)N4C(=O)C5C6CCC(C6)C5C4=O)cc3)o2)cc1)N1C(=O)C2C3CCC(C3)C2C1=O (stereo partly drawn) [JR-18, (2S,2′S)-N,N′-(2,5-oxazolediyldi-4,1-phenylene)bis[1-[2-(octahydro-1,3-dioxo-4,7-methano-2H-isoindol-2-yl)-1-oxopropyl]-2-pyrrolidinecarboxamide]]
[1]
  pEC50: 5.00 to 6.00

## CC(C)C(C(=O)N1CCC[C@H]1C(=O)Nc1ccc(-c2cnc(-c3ccc(NC(=O)[C@@H]4CCCN4C(=O)C(C(C)C)N4C(=O)C5C6C=CC(C6)C5C4=O)cc3)o2)cc1)N1C(=O)C2C3C=CC(C3)C2C1=O (stereo partly drawn) [JR-19, (2S,2′S)-N,N′-(2,5-oxazolediyldi-4,1-phenylene)bis[1-[2-(1,3,3a,4,7,7a-hexahydro-1,3-dioxo-4,7-methano-2H-isoindol-2-yl)-3-methyl-1-oxobutyl]-2-pyrrolidinecarboxamide]]
[1]
  pEC50: 6.00 to 7.00

## O=C(Nc1ccc(-c2cnc(-c3ccc(NC(=O)[C@@H]4CCCN4C(=O)CN4C(=O)OC[C@@H]4c4ccccc4)cc3)o2)cc1)[C@@H]1CCCN1C(=O)CN1C(=O)OC[C@@H]1c1ccccc1 [JR-20, (2S,2′S)-N,N′-(2,5-oxazolediyldi-4,1-phenylene)bis[1-[[(4S)-2-oxo-4-phenyl-3-oxazolidinyl]acetyl]-2-pyrrolidinecarboxamide]]
[1]
  pEC50: 5.00 to 6.00

## O=C(Nc1ccc(-c2cnc(-c3ccc(NC(=O)[C@@H]4CCCN4C(=O)CN4C(=O)OC[C@H]4c4ccccc4)cc3)o2)cc1)[C@@H]1CCCN1C(=O)CN1C(=O)OC[C@H]1c1ccccc1 [JR-21, (2S,2′S)-N,N′-(2,5-oxazolediyldi-4,1-phenylene)bis[1-[[(4R)-2-oxo-4-phenyl-3-oxazolidinyl]acetyl]-2-pyrrolidinecarboxamide]]
[1]
  pEC50: 5.00 to 6.00

## O=C(Nc1ccc(-c2cnc(-c3ccc(NC(=O)[C@@H]4CCCN4C(=O)CN4C(=O)OC(c5ccccc5)C4=O)cc3)o2)cc1)[C@@H]1CCCN1C(=O)CN1C(=O)OC(c2ccccc2)C1=O (stereo partly drawn) [JR-22, (2S,2′S)-N,N′-(2,5-oxazolediyldi-4,1-phenylene)bis[1-[(2,4-dioxo-5-phenyl-3-oxazolidinyl)acetyl]-2-pyrrolidinecarboxamide]]
[1]
  pEC50: 5.00 to 6.00
[2]
  pEC50: 5.76

## CC(=O)N1CCC[C@H]1C(=O)Nc1ccc(-c2cnc(-c3ccc(NC(=O)[C@@H]4CCCN4C(=O)Cc4ccccc4)cc3)o2)cc1 [MS-1, (2S)-1-acetyl-N-(4-(2-(4-((((2S)-1-(phenylacetyl)-2-pyrrolidinyl)carbonyl)amino)phenyl)-1,3-oxazol-5-yl)phenyl)-2-pyrrolidinecarboxamide]
[4]
  pEC50: 6.00 to 7.00

## CC(=O)N1CCC[C@H]1C(=O)Nc1ccc(-c2cnc(-c3ccc(NC(=O)[C@@H]4C[C@@H](OC(C)(C)C)CN4C(=O)OCc4ccccc4)cc3)o2)cc1 [MS-2, benzyl (2S,4R)-2-((4-(5-(4-((((2S)-1-acetyl-2-pyrrolidinyl)carbonyl)amino)phenyl)-1,3-oxazol-2-yl)phenyl)carbamoyl)-4-tert-butoxy-1-pyrrolidinecarboxylate]
[4]
  pEC50: 6.00 to 7.00

## CC(=O)N1CCC[C@H]1C(=O)Nc1ccc(-c2cnc(-c3ccc(NC(=O)[C@@H]4C[C@@H](O)CN4C(=O)OCc4ccccc4)cc3)o2)cc1 [MS-3, benzyl (2S,4R)-2-((4-(5-(4-((((2S)-1-acetyl-2-pyrrolidinyl)carbonyl)amino)phenyl)-1,3-oxazol-2-yl)phenyl)carbamoyl)-4-hydroxy-1-pyrrolidinecarboxylate]
[4]
  pEC50: 6.00 to 7.00

## CC(=O)N1CCC[C@H]1C(=O)Nc1ccc(-c2cnc(-c3ccc(NC(=O)C4CCN(C(=O)OCc5ccccc5)C4)cc3)o2)cc1 (stereo partly drawn) [MS-4, benzyl 3-((4-(5-(4-((1-acetyl-L-prolyl)amino)phenyl)-1,3-oxazol-2-yl)phenyl)carbamoyl)-1-pyrrolidinecarboxylate]
[4]
  pEC50: 6.00 to 7.00
[2]
  pEC50: 6.05

## CC(=O)N1CCC[C@H]1C(=O)Nc1ccc(-c2cnc(-c3ccc(NC(=O)C4CC(=O)N(CCc5cccs5)C4)cc3)o2)cc1 (stereo partly drawn) [MS-5, (2S)-1-acetyl-N-[4-[2-[4-[[[5-oxo-1-[2-(2-thienyl)ethyl]-3-pyrrolidinyl]carbonyl]amino]phenyl]-5-oxazolyl]phenyl]-2-pyrrolidinecarboxamide]
[4]
  pEC50: 6.00 to 7.00

## CC(=O)N1CCC[C@H]1C(=O)Nc1ccc(-c2ncc(-c3ccc(NC(=O)[C@@H]4CCCN4C(=O)Cc4ccccc4)cc3)o2)cc1 [MS-6, (2S)-1-acetyl-N-(4-(5-(4-((((2S)-1-(phenylacetyl)-2-pyrrolidinyl)carbonyl)amino)phenyl)-1,3-oxazol-2-yl)phenyl)-2-pyrrolidinecarboxamide]
[4]
  pEC50: 6.00 to 7.00
[2]
  pEC50: 6.73
